These results are taken from PubChem BioAssay AID2745 (NMMLSC, 2010).

SMILES strings stand for the structures. The source made the active and inactive calls. How the calls were made is not given here.

The experiment is described as follows: concentration series on yeast TOR reporter LAP4 – cell-based, MLPCN hits, flow cytometry, dose response (AID 2745).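 Further: yeast exposed to compound for three hours at 30 degrees.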 Conditions: S. cerevisiae LAP4-GFP reporter, flow cytometry fluorescence; at 33 µM (top of the series). For orientation: Flow cytometry measures light scatter and fluorescence of single cells or particles in a stream.

With `CCCCC(=O)NC(=S)NNC(=O)CCc1ccccc1`, the LAP4-GFP fluorescence (kMESF) was 8.13 kMESF (inactive).

For `CC[C@]1(c2ccccc2C)ON(c2ccccc2C(F)(F)F)C1=O`, the LAP4-GFP fluorescence (kMESF) is 3.33 kMESF (inactive).

In the case of `O=C1c2cccc3c([N+](=O)[O-])ccc(c23)C(=O)N1c1ccccn1`, the LAP4-GFP fluorescence (kMESF) was 7.78 kMESF (inactive). For `Cc1ccc(N=c2ssnc2Cl)cc1` the value was 10.6 kMESF (inactive); for `Cc1cccc(NC(c2ccc(C)s2)c2ccc3ccc(C)nc3c2O)n1` (configuration not stated), 16.8 kMESF (inactive).

Regarding `COc1ccc2c(c1)c1nnc(SC)nc1n2C`, the LAP4-GFP fluorescence (kMESF) was 4.19 kMESF (inactive). The figure for `CCc1nc2ccccc2c(=O)n1NC(=O)c1c(O)c2ccccc2n(CC)c1=O` is 3.31 kMESF (inactive). For `O=[N+]([O-])c1cc(CN2CCN(c3cccc(C(F)(F)F)c3)CC2)c2cccnc2c1O` the value was 7.46 kMESF (inactive). For `CCN(CC)c1ccc(/C=C2\C(=O)c3ccc(C(=O)O)cc3C2=O)cc1` the value was 392 kMESF (inactive); for `Cc1ccccc1OCC(=O)NNC(=S)NC(=O)c1ccco1`, 6.11 kMESF (inactive). Regarding `COc1cc(/C=C2\C(=O)ON=C2c2ccccc2)cc(OC)c1OC`, the LAP4-GFP fluorescence (kMESF) is 6.41 kMESF (inactive). Turning to `CCn1c(=O)c(C(C)=O)c(O)c2ccccc21`, the LAP4-GFP fluorescence (kMESF) is 6.66 kMESF (inactive). Turning to `COc1ccc(CCNC2=C(Cl)C(=O)N(CCc3ccccc3)C2=O)cc1OC`, the LAP4-GFP fluorescence (kMESF) was 3.31 kMESF (inactive).

Turning to `Nc1c(C(=O)c2cccs2)sc2nsc(SCCN3CCCCC3)c12`, the LAP4-GFP fluorescence (kMESF) is -1.87 kMESF (inactive). The figure for `CCCS(=O)(=O)c1nnnn1-c1cccc(OC)c1` is 18.2 kMESF (inactive); for `Oc1ccc(CNc2ccccc2)c2cccnc12` it is 3.88 kMESF (inactive). For `Cc1c(C)c2ccc(Oc3ccc([N+](=O)[O-])cc3C(F)(F)F)c(C)c2oc1=O` the value was 3.47 kMESF (inactive). For `CCc1cccc2sc(N3CCN(C(=O)c4ccc([N+](=O)[O-])o4)CC3)nc12` the value was -0.3 kMESF (inactive). `COc1ccc([C@@]2(C(C)C)ON(c3ccccc3C(F)(F)F)C2=O)cc1`: the LAP4-GFP fluorescence (kMESF) is 4.38 kMESF (inactive). Consider `COc1ccccc1-c1nc2s/c(=C\c3cccs3)c(=O)n2n1`, for which the LAP4-GFP fluorescence (kMESF) was 5.46 kMESF (inactive).

As to `N#Cc1cc([N+](=O)[O-])c(-n2nnc3ccccc32)c([N+](=O)[O-])c1`, the LAP4-GFP fluorescence (kMESF) was 14.5 kMESF (inactive). The figure for `Cc1cccc(N2C(=O)C(Cl)=C(Nc3c(C)n(C)n(-c4ccccc4)c3=O)C2=O)c1C` is 6.11 kMESF (inactive). For `Cc1ccc(NC(=O)c2cc(N3C(=O)C=CC3=O)ccc2N2CCOCC2)cc1Cl` the value was 10.5 kMESF (inactive); for `COc1ccc(C2(C)ON(c3ccccc3C(F)(F)F)C2=O)cc1` (configuration not stated), 6.61 kMESF (inactive); for `Cc1cc(C)c(S(=O)(=O)N2CCC(C(=O)NCc3ccc(Cl)cc3Cl)CC2)c(C)c1`, 4.35 kMESF (inactive).

In the case of `COc1cccc2c(=O)c(C(=O)NCc3cccs3)c[nH]c12`, the LAP4-GFP fluorescence (kMESF) was 2.13 kMESF (inactive). For `CCN1C(=O)/C(=C\C(=O)c2cccs2)c2cc(Br)ccc21` the value was 12 kMESF (inactive); for `Cc1ccc2c(nc3s/c(=C\c4ccc(-c5ccccc5C(=O)O)o4)c(=O)n32)c1C`, 15.5 kMESF (inactive). The figure for `C/C(=N\Nc1ncnc2sc(C)c(C)c12)c1ccccn1` is -7.63 kMESF (inactive); for `Cc1nn(C)c(C)c1N1C(=O)c2cccc3c(Br)ccc(c23)C1=O` it is 5.85 kMESF (inactive); for `CC(=O)N(C1=C(Cl)C(=O)c2ccccc2C1=O)C1CCCCC1` it is -2.43 kMESF (inactive). The figure for `COc1ccccc1[C@@]1(C)ON(c2ccccc2C(F)(F)F)C1=O` is 7.08 kMESF (inactive); for `Cc1ccc(C(=O)O/N=C(\N)Cc2cccs2)c(Cl)c1` it is 13.1 kMESF (inactive); for `O=[N+]([O-])c1cnc(Sc2ccncn2)s1` it is 17.8 kMESF (inactive). Take `CCOC(=O)c1c(C)oc2c1c(C(c1ccncc1)N1CCOCC1)c(O)c1ccccc12` (configuration not stated): the LAP4-GFP fluorescence (kMESF) was 6.29 kMESF (inactive). As to `O=C(c1ccccn1)c1conc1C(=O)c1ccc(Br)cc1`, the LAP4-GFP fluorescence (kMESF) was 9.07 kMESF (inactive). Consider `N/C(=N\OC(=O)c1cc(Br)ccc1Cl)c1ccccn1`, for which the LAP4-GFP fluorescence (kMESF) was 12.2 kMESF (inactive). Consider `COc1ccc([C@]2(C(C)C)ON(c3ccccc3C(F)(F)F)C2=O)cc1`, for which the LAP4-GFP fluorescence (kMESF) is 4.65 kMESF (inactive). For `Cc1ccc(NC(=O)c2cc(N3C(=O)C=CC3=O)ccc2Cl)cc1C` the value was 4.75 kMESF (inactive). As to `CCN1/C(=C/C=C/c2sc3ccccc3[n+]2CC)Sc2ccccc21`, the LAP4-GFP fluorescence (kMESF) was 7.72 kMESF (inactive). The figure for `O=c1c2cc(Br)ccc2nc(-c2ccc([N+](=O)[O-])cc2)n1O` is 6.81 kMESF (inactive); for `CC(=O)N(\C=C/C=C/C=C1\Sc2ccccc2C1=O)c1ccccc1` it is 14.2 kMESF (inactive); for `Cn1ncc2c(O/N=C(\N)c3ccc(C(C)(C)C)cc3)ncnc21` it is 5.61 kMESF (inactive). The figure for `O=C(Oc1oc(-c2ccco2)nc1C=Nc1ccccc1)c1ccoc1` is 8.01 kMESF (inactive); for `O=C1ON=C(c2ccc(Cl)cc2)/C1=C/c1ccc(O)cc1` it is 6.72 kMESF (inactive); for `CC(C)C[C@]1(c2ccccc2)ON(c2ccccc2C(F)(F)F)C1=O` it is 2.53 kMESF (inactive). The figure for `Cc1ccc2[nH]cc(/C=C/c3cc[n+](C)cc3)c2c1` is 5.34 kMESF (inactive).

As for `COc1ccc(/C=C/C(=O)c2cc(Br)ccc(=O)c2O)cc1`, the LAP4-GFP fluorescence (kMESF) was -33.8 kMESF (inactive). For `CCCCNc1c2c3c(cccc3n(C)c1=O)C(=O)c1ccccc1-2` the value was 11.2 kMESF (inactive); for `O=C1/C(=C\c2ccc(O)c(O)c2)SC(=S)N1Cc1ccccc1`, -9.95 kMESF (inactive); for `O=C(Nc1nc2ccc(F)cc2s1)c1ccccn1`, 8.11 kMESF (inactive). For `Cc1ccccc1C(=O)NNC(=S)NC(=O)c1ccc(Cl)cc1Cl` the value was 8.22 kMESF (inactive); for `Cc1nn2c(NCc3ccccn3)c3c(nc2c1-c1ccccc1)CCC3`, 7.76 kMESF (inactive); for `O=C(Nc1nnc(-c2ccc(F)cc2)o1)c1cccc([N+](=O)[O-])c1`, 6.91 kMESF (inactive). Consider `O=C(C#Cc1cccc([N+](=O)[O-])c1)c1ccccc1`, for which the LAP4-GFP fluorescence (kMESF) is 8.01 kMESF (inactive). For `COC(=O)CCS(=O)(=O)c1nc(-c2ccccc2)cc(C(F)(F)F)n1` the value was 20.1 kMESF (inactive).

Consider `CCOC(=O)CS(=O)(=O)c1nc(-c2ccc(F)cc2)cc(C(F)(F)F)n1`, for which the LAP4-GFP fluorescence (kMESF) was 11.2 kMESF (inactive).
